Key:
[1] = tested on: multiple melanoma cell lines; test: Flow cytometry analysis of DNA content, multiple melanoma cell lines; format: cell-based, human
Method: Melanoma cells were treated with the indicated concentrations of 1-benzyl I3C in triplicates every 24 hours and harvested at the end of 24, 48 or 72 hours for cell cycle analysis. The DNA content of propidium iodide stained nuclei from harvested cells were determined by flow cytometry. Briefly, cells were hypotonically lysed in […] of DNA staining solution (0.5 mg/mL propidium iodide, 0.1% sodium citrate, and 0.05% Triton-X 100). Emitted fluorescence from the nuclear of wavelengths more than 585 nm was measured with a Coulter Elite instrument with laser output adjusted to deliver 15 mW at 488 nm. Ten thousand nuclei were analyzed from each sample at a rate of 300-500 nuclei/second. The percentage of cells within the G1, S, and G2/M phases of the cell cycle were determined by analysis with the Multicycle computer program provided by Phoenix Flow Systems in the Cancer Research Laboratory Microchemical Facility of the University of California, Berkeley.

β-catenin = test: Western blot of β-catenin; format: cell-based, human; details: G-361, DM-738, SK-MEL-2 cells, 20 μM 1-benzyl I3C, 24, 48 and 72 hours
Source text: The western blots employed the following primary antibodies: mouse anti-MITF-M (Thermo-scientific), mouse anti-HSP 90 (BD Biosciences), mouse anti-CDK2, rabbit anti-CDK4, rabbit anti-CDK-6, mouse anti-rabbit BRAF, goat anti-LEF-1, rabbit anti-AXIN, mouse anti-BCL2, (Santa Cruz), rabbit anti-P21, mouse anti-Cyclin D1, rabbit anti-MEK-p, rabbit anti-MEK1/2, rabbit anti-GSK3β rabbit anti-LRP6, rabbit anti-LRP6-phospho (Cell signaling), mouse anti-β-catenin (Invitrogen).

MITF-M = test: Immunofluorescence of tumor xenograft sections for MITF-M; format: in vivo, human; details: I3C 200 mg/kg, terminal sacrifice, relative to vehicle
Method: Approximately 1 million G361 melanoma cells in a total volume of 0.1 ml of Matrigel were injected subcutaneously into each lateral flank of NIH III athymic nude mice. The resulting tumors were allowed to grow to a mean starting volume of 146±10 mm^3. The animals were then randomized into two groups; a vehicle control group that was treated with DMSO and an […] treated group that were injected daily with 200 mg/kg body weight of […]. The resulting tumor volumes were measured every other day for four weeks using calipers. The tumor volumes were calculated using the standard formula: […], and changes in tumor volumes were calculated using the formula: 100+{(Tf-Ti)/Ti×100}, where Tf is the final mean tumor volume and Ti is the initial mean tumor volume. At terminal sacrifice, tumor xenografts were harvested, and a portion of each tumor was fixed in 4% para-formaldehyde for 1 hour at room temperature, followed by a phosphate-buffered saline (PBS) wash and subsequently immersed in 3% sucrose overnight at 4° C. The resulting tissues were embedded in OCT and 10 μm thin sections were taken for immunofluorescence studies.

SK-MEL-24 cells = test: CCK-8 proliferation assay, SK-MEL-24; format: cell-based, human; details: 200 μM I3C, 72 hours; wild type BRAF
Method: Subsequently inhibition of proliferation was assessed using Cell counting Kit-8 (Dojindo) as per the protocol in the user's manual. Briefly, 50 μl of the CCK-8 solution was added to each well along with 450 μl media and incubated for 2-3 hours. The absorbance was read at 450 nm and % inhibition was calculated for each condition standardizing DMSO to zero using the formula: [(100-Value of treatment/Value of DMSO treated control)×100]

BRN2 = test: Chromatin immunoprecipitation, BRN2 at MITF-M promoter; format: cell-based, human; details: G-361 cells, 200 μM I3C, 48 hours
Method: […] Proteins were crosslinked to DNA by the addition of formaldehyde at 2.5% of the final concentration for 5 minutes at room temperature to cultured cells. Fixation was quenched with glycine for a final concentration of 125 mmol/1 for 5 minutes. Harvested cells were sonicated and the chromatin was immunoprecipitated overnight and 15 μl of mouse anti-Brn2 antibodies (Santa Cruz Biotechnology) was added to the cell lysates to immunoprecipitate the chromatin-bound Brn2 protein. A fragment of the MITF-M promoter (−170+120) containing the BRN2 binding site (−53 to −27) was amplified using the primers—MITF-M Forward: 5′-CGTCACTTAAAAAGGTACCTTTATATTTATG-3′ (SEQ ID NO:7) MITF-M Reverse: 5′-TGT TTTAGC TAGCACCAATCCAGTGAGAGACGG-3′ (SEQ ID NO:8) by cycling 36 times (95° C., 30 s/52° C. 30 s/72° C., 30 s) with a 72° C., 10 min extension. The PCR products were electrophoretically fractionated on a 1.5% agarose gel and visualized using a transilluminator.

[2] = tested on: cultured human cancer cells; details: Wong et al. 1997; cited from earlier work

## OCc1cn(Cc2ccccc2)c2ccccc12 [1-benzyl I3C, 1-benzyl indole-3-carbinol]
[1]; 20 μM 1-benzyl I3C, all the cell lines
  time to significant G1 cell cycle arrest: ≤ 24 h
[1]; varying doses of 1-benzyl I3C, 48 hours
  G1 cell cycle arrest: significant G1 cell cycle arrest
β-catenin
  β-catenin protein levels: significantly downregulated

## OCc1c[nH]c2ccccc12 [I3C, indole-3-carbinol]
MITF-M
  MITF-M protein in tumor xenograft sections: strong down-regulation of MITF-M protein
SK-MEL-24 cells
  sensitivity to anti-proliferative effects: significantly less sensitive
BRN2
  endogenous BRN2 binding to the MITF-M promoter: significantly down regulated endogenous BRN-2 interactions with this promoter
[2]
  optimal concentration for the anti-proliferative effect: 200 µM
